Reference: patent US6235284A, “Synthetic polypeptides belonging to the hepatitis C virus (HCV) and which can be used especially for detecting the latter” (Bio Merieux, priority 1992, dated 2001)

System: anti-HCV antibodies (HCV-positive sera)
Experiment: ELISA detection of anti-HCV antibodies in HCV-positive sera with adsorbed peptides
Type: binding, human
Description: The reactivity of these three peptides towards the sera of individuals infected with the hepatitis C virus, termed (HCV) positive, was evaluated in an ELISA test according to the procedure described below.
Detection of anti-HCV Antibodies by ELISA
The wells of a microtiter plate of "NUNC MAXISORB™" trademark are saturated with 100 μl of a solution containing the peptide or a mixture of peptides (10 μg/ml) for 2 hours at 37° C. The plate is then emptied, then washed with a wash buffer containing 0.05% TWEEN™ 20(polysorbate 20). The wells are saturated with 100 μl of wash buffer supplemented with 10% goat serum (v/v), then incubated for 30 minutes at 37° C., then washed again as above. The sera to be analyzed are diluted to the appropriate dilution with saturation buffer. The incubation of the sera is 1 hour at 37° C. The wells are again washed. The solution of conjugate (goat IgG to human IgG labelled with peroxidase) at a dilution of 1/1000 in the saturation buffer is then added and the incubation lasts for 90 minutes at 37° C. After washing, the solution of orthophenylenediamine substrate is added. After 10 minutes, the reaction is stopped with 50 μl of H2 SO4 and the optical density is read at 492 nm. It should be noted that all the tests were carried out in duplicate.
For that, the different peptides are adsorbed on the microplates at a concentration of 10 μg/ml and the sera are used at 1/100 dilution.
The values obtained, which are collated in Table 1 below, correspond to the optical density (OD) multiplied by 10^3, at 492 nm.
For each serum the experiment was carried out in duplicate. The **** are values outside the upper scale.
The different peptides are absorbed onto microplates at a concentration of 10 μg/ml and the sera are used at the dilution stated.
The values obtained, which are collated in Table 2 below, correspond to the optical density at 492 nm. All the experiments were carried out in duplicate.
Each serum was, in a first instance, tested at the dilution 1/100.
The values given correspond to the optical density read at 492 nm multiplied by the factor 10^3.

K22Y: peptide corresponding to the amino acid sequence 12 to 35 of the CORE protein (KRNTNRRPQDVKFPGGGQIVGGVY)
optical density at 492 nm (Table 4, serum A 8, 1/1000): 431 OD × 10^3
optical density at 492 nm (Table 4, serum A 8, 1/10,000): 56 OD × 10^3
optical density at 492 nm (Table 4, serum A 9, 1/100): 2152 OD × 10^3
optical density at 492 nm (Table 4, serum A 9, 1/1000): 282 OD × 10^3
optical density at 492 nm (Table 4, serum A 9, 1/10,000): 43 OD × 10^3
optical density at 492 nm (Table 4, serum A 10, 1/100): 2114 OD × 10^3
optical density at 492 nm (Table 4, serum A 10, 1/1000): 207 OD × 10^3
optical density at 492 nm (Table 4, serum A 10, 1/10,000): 26 OD × 10^3
optical density at 492 nm (Table 4, serum A 11, 1/100): 1878 OD × 10^3
optical density at 492 nm (Table 4, serum A 11, 1/1000): 212 OD × 10^3
optical density at 492 nm (Table 4, serum A 11, 1/10,000): 31 OD × 10^3
optical density at 492 nm (Table 4, serum A 12, 1/1000): 646 OD × 10^3
optical density at 492 nm (Table 4, serum A 12, 1/10,000): 62 OD × 10^3
optical density at 492 nm (Table 4, serum B 3, 1/100): 2033 OD × 10^3
optical density at 492 nm (Table 4, serum P 1, 1/100): 435 OD × 10^3
optical density at 492 nm (Table 4, serum P 2, 1/100): 666 OD × 10^3
optical density at 492 nm (Table 4, serum P 3, 1/100): 1031 OD × 10^3
optical density at 492 nm (Table 4, serum P 4, 1/1000): 1959 OD × 10^3
optical density at 492 nm (Table 4, serum P 4, 1/10,000): 300 OD × 10^3
optical density at 492 nm (Table 4, serum P 5, 1/10,000): 394 OD × 10^3
optical density at 492 nm (Table 4, serum P 7, 1/10,000): 1487 OD × 10^3
optical density at 492 nm (Table 4, serum P 8, 1/1000): 2257 OD × 10^3
optical density at 492 nm (Table 4, serum P 8, 1/10,000): 335 OD × 10^3
optical density at 492 nm (Table 4, serum P 10, 1/100): 66 OD × 10^3
optical density at 492 nm (Table 4, serum P 14, 1/10,000): 398 OD × 10^3
optical density at 492 nm (Table 4, serum P 16, 1/1000): 610 OD × 10^3
optical density at 492 nm (Table 4, serum P 16, 1/10,000): 75 OD × 10^3
optical density at 492 nm (Table 4, serum P 17, 1/100): 1930 OD × 10^3
optical density at 492 nm (Table 4, serum P 23, 1/100): 125 OD × 10^3
optical density at 492 nm (Table 4, serum P 24, 1/100): 735 OD × 10^3
optical density at 492 nm (Table 4, serum P 29, 1/100): 310 OD × 10^3
optical density at 492 nm (Table 4, serum P 30, 1/100): 1805 OD × 10^3

K32G: peptide corresponding to the amino acid sequence 12 to 45 of the CORE protein (KRNTNRRPQDVKFPGGGQIVGGVYLLPRRGPTLG)
optical density at 492 nm (Table 5, serum A8, 1/10,000): 666 OD × 10^3
optical density at 492 nm (Table 5, serum A 9, 1/1000): 1675 OD × 10^3
optical density at 492 nm (Table 5, serum A 9, 1/10,000): 229 OD × 10^3
optical density at 492 nm (Table 5, serum A11, 1/1000): 2108 OD × 10^3
optical density at 492 nm (Table 5, serum A11, 1/10,000): 343 OD × 10^3
optical density at 492 nm (Table 5, serum A12, 1/10,000): 598 OD × 10^3
optical density at 492 nm (Table 5, serum A13, 1/10,000): 1247 OD × 10^3
optical density at 492 nm (Table 5, serum A14, 1/1000): 998 OD × 10^3
optical density at 492 nm (Table 5, serum A14, 1/10,000): 103 OD × 10^3
optical density at 492 nm (Table 5, serum A15, 1/10,000): 715 OD × 10^3
optical density at 492 nm (Table 5, serum A19, 1/10,000): 594 OD × 10^3
optical density at 492 nm (Table 5, serum A21, 1/1000): 993 OD × 10^3
optical density at 492 nm (Table 5, serum A21, 1/10,000): 123 OD × 10^3
optical density at 492 nm (Table 5, serum A22, 1/1000): 876 OD × 10^3
optical density at 492 nm (Table 5, serum A22, 1/10,000): 129 OD × 10^3
optical density at 492 nm (Table 5, serum A23, 1/10,000): 774 OD × 10^3
reactivity towards HCV-positive sera (in words): little or no difference is observed in reactivity
